According to patent US10618939B2, “Hydrocarbon-stapled polypeptides for enhancement of endosome-lysosomal degradation” (The Hong Kong Polytechnic University, priority 2016, dated 2020):
Entries after “also recorded” stand apart in the source; their conditions may differ. Bridge positions count the residues as written; N and C are the ends. Square brackets hold non-standard residues; d marks the D form. Ends that are not written are not given here. Peptide text beside a SMILES is read from it. R8 = C=CCCCCCC[C@@](C)(N)C(=O)O; S5 = C=CCCC[C@](C)(N)C(=O)O

Tests used:
[1] = molecular target: T1, Beclin 1 coiled coil domain (Rattus norvegicus, UniProt Q91XJ1); assay: Light Scattering (LS) profile, dimer-to-monomer transition of Beclin 1 coiled coil domain; format: biochemical
T1 construct: thioredoxin-6xHis fusion (3C protease site) (cleaved yes); made in house; host or cells: Escherichia coli BL21 (DE3)
T1 sequence (Q91XJ1 174-266 limits assumed): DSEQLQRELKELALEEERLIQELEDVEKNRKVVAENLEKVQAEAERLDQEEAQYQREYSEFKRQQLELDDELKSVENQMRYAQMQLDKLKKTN
From the text: Tat sequence (SEQ ID NO: 13: YGRKKRRQRRR) was linked in front of all peptides except the rhodamine B labeled one to enhance cell permeability. The computationally optimized stapled peptide SP4 (SEQ ID NO: 4) was chosen and synthesized by a commercial vendor following the synthetic method pioneered by Kim et. al. (Kim, Grossmann et al. 2011) (FIG. 1C). The purified product was confirmed by mass spectroscopy and HPLC. The importance of the hydrocarbon staple in maintaining the α-helical structure of the designed peptide was confirmed by circular dichroism (CD) measurements (FIG. 1D). […] The Light Scattering (LS) profile of Beclin 1 coiled coil domain in absence of SP4 (SEQ ID NO: 4) indicates a homodimer with predicted molecular weight of 24.8 kDa.

HEK293T cells = assay: LC3 lipidation western blot in HEK293T cells; format: cell-based; details: 10 μM and 20 μM, absence or presence of chloroquine (50 μM)
Experimental: Transient DNA transfection was performed using Lipofectamine 2000 (Invitrogen). For Co-IP experiment to measure interaction between UVRAG and endogenous Beclin 1, FLAG-tagged UVRAG plasmids were transfected into HEK293T cells. […] For immunoblotting assay of LC3-II, p62 and EGFR degradation, FLAG-tagged UVRAG mutant plasmids were transfected into HEK293T cells, HeLa cell stably expressing GFP-LC3 and A549 NSCLC cells respectively. Cells were lysed in IP buffer (25 mM HEPES PH 7.5, 10 mM MgCl2, 150 mM NaCl, 1 mM EDTA.2Na, 1% Nonidet P-40, 1% Triton X-100 and 2% glycerol) or Laemmli sample buffer (62.5 mM Tris-HCl, pH 6.8, 2% SDS, 25% glycerol, 5% β-mercaptoethanol) with freshly added EDTA-free protease inhibitor cocktail (Roche). Protein lysate was either directly subject to immunoblot assay or Co-IP. For Co-IP, Lysates were incubated with FLAG magnetic beads (Sigma) overnight at 4° C. The beads were washed with 1×IP lysis buffer 5 times and then eluted with 2×SDS sample buffer.

EGFR in HEK293T cells = assay: EGFR degradation assay in HEK293T cells; format: cell-based
Experimental: (§1) HEK293T or A549 cells in 6-well plate were washed with PBS two times and serum-starved overnight in DMEM. EGFR endocytosis was induced by incubation with DMEM medium (with 20 mM HEPES and 0.2% BSA) containing 200 ng/mL of EGF (Invitrogen). Cells were collected at each time point after EGF stimulation and lysed in Laemmli sample buffer (62.5 mM Tris-HCl, pH 6.8, 2% SDS, 25% glycerol, 5% β-mercaptoethanol). 20 μg protein lysate was collected for each time point, analyzed by SDS-PAGE and immunoblotted with anti-EGFR antibody (1:2000, Santa Cruz Biotechnology).

[2] = tested on: wild type EGFR in A549 cell line; assay: EGFR degradation assay in A549 cells; format: cell-based; details: A549 NSCLC
Experimental: as §1

[3] = tested on: mutated EGFR in H1975 cell lines; assay: EGFR degradation assay in H1975 cells; format: cell-based; details: H1975 NSCLC
[4] = tested on: GFP-tagged Beclin 1 in A549 cell; assay: Confocal colocalization with GFP-Beclin 1 in A549 cells; format: cell-based; details: A549 cells transiently expressing GFP-Beclin 1, 20 μM, 30 minutes
Experimental: A549 cells transiently expressing GFP-Beclin 1 were treated with 20 μM Rhodamine-SP4 (SEQ ID NO: 4) for 30 minutes and observed under a confocal microscope.

Row | dimer-to-monomer transition in Beclin 1 coiled coil domain [1] | Molecule | LC3 lipidation (HEK293T cells) | EGFR degradation (EGFR in HEK293T cells) | EGFR degradation [2] | EGFR degradation [3] | colocalization with GFP-Beclin 1 [4]
1 | can induce dimer-to-monomer transition | CC[C@H](C)[C@H](NC(=O)[C@H](CC(C)C)NC(=O)[C@H](CCCNC(=N)N)NC(C)=O)C(=O)N[C@@H](CO)C(=O)N[C@@H](CCC(=O)O)C(=O)N[C@@H](CC(C)C)C(=O)N[C@]1(C)CCCCCC/C=C/CCC[C@@](C)(C(=O)N[C@@H](C)C(N)=O)NC(=O)[C@H](CCCNC(=N)N)NC(=O)[C@H](CCC(N)=O)NC(=O)[C@H](CCCCN)NC(=O)[C@H](CCC(=O)O)NC(=O)[C@H](CCCNC(=N)N)NC(=O)[C@H](CC(=O)O)NC1=O [SP4] (Ac-RLISEL[R8]DREKQR[S5]A-NH2; staple (E) 7-14; N-terminus and C-terminus assumed) | enhanced LC3 lipidation in dosage-dependent manner | significantly enhanced EGFR degradation | significantly enhanced EGFR degradation | significantly enhanced EGFR degradation | 
2 |  | Rhodamine-labeled SP4: rhodamine B labeled SP4, without Tat sequence (RLISEL[R8]DREKQR[S5]A; staple 7-14 (inferred); also: rhodamine B label, position not given here) |  |  |  |  | colocalizes; also recorded: co-localized well
